These results are taken from US20090023810A1, “METHODS OF TRANSLATION AND/OR INFLAMMATION BLOCKADE” (priority 2007, published 2009).

One assay has as its system ribosomes. The experiment in a line: Ribosomal pull-down with biotinylated β-globin mRNA in RRL. Format: biochemical, rabbit. The note with it: 10 μM or 50 μM, FIG. 12B. Here is the method: Ribosomal pull-downs were performed as described by Colon-Ramos et al. (Colon-Ramos et al., 2006, which is hereby incorporated by reference for all purposes as if fully set forth herein). Biotinylated β-globin mRNAs synthesized from plasmid pcDNA3-7B-ARE-MS2bs were incubated in an RRL (Promega) in the presence or absence of 15d-PGJ2. After the translation reactions, 10 μg/ml of cycloheximide was added to stop the translation, and then reaction mixtures were incubated with 50 μl of streptavidin Sepharose beads at 4° C. for 1 h. Precipitated resins were washed three times, resolved by SDS-PAGE and then transferred to a nitrocellulose membrane.
In addition, effects of 15d-PGJ2 on HCV IRES-dependent translation and ribosome binding of mRNA are examined, as shown in FIGS. 12A and 12B. In FIG. 12A, HCV IRES-dependent translation is not affected by 15d-PGJ2. In vitro translation of an mRNA (40 nM) containing Renilla luciferase under the control of the HCV IRES was performed in RRL (Promega) for 1 hour with the addition of purified eIF4A1 protein (0 ng, lanes 1 and 2; 250 ng, lanes 3 and 4; 500 ng, lanes 5 and 6). 15d-PGJ2 (50 μM) was added to the translation mixtures shown in lanes 2, 4, and 6. Relative luciferase activities to the mock-treated sample (lane 1) are shown in columns (mean values). Bars indicate standard deviation values. […]

Assay [1] concerns HeLa cells. The experiment in a line: Ribosome (polysome) profiling with sucrose gradient in HeLa cells. Format: cell-based. The note with it: SA 400 μM 30 minutes; 15d-PGJ2 or PGE2 50 μM 1 hour, FIG. 4C. The protocol: Experiments were performed as described elsewhere (Kedersha et al., 2000, which is hereby incorporated by reference for all purposes as if fully set forth herein) using a 0.5-1.5 M sucrose gradient.
It is well known that inhibition of translation and SG formation alters the polysome profile. HeLa cells were mock-treated or treated with SA (400 μM) for 30 minutes, 15d-PGJ2 (50 μM) for 1 hour, or PGE2 (50 μM) for 1 hour. A sucrose gradient experiment was performed as described above, and the obtained results are shown in FIG. 4C, wherein the lines show observance at 254 nm.

Assay [2] has as its system HeLa cells. Description: Stress granule (SG) formation in HeLa cells, immunocytochemistry. Format: cell-based. The note with it: HeLa. Here is the method:
The immunocytochemical analyses of proteins were performed as described elsewhere (Kim et al., 2005, which is hereby incorporated by reference for all purposes as if fully set forth herein).
HeLa cells that were mock-treated (Mock) or treated with PGA1, 15d-PGJ2, PGE2, SA, arachidonic acid (AA), ciglitazone (Ci), troglitazone (Tro), and rosiglitazone (Rosi) (at indicated concentrations) for 30 minutes.
HeLa cells were treated with lovastatin (100 μM), lipoxin A4 (LXA4, 10 μM), lipoxin B4 (LXB4, 10 μM), epi-lipoxin A4 (epi-LxA4, 10 μM), TGF-β (100 ng/ml), interleukin-10 (IL-10, 100 ng/ml) for 1 hour.
Emetine freezes ribosomes in the polysomal state and inhibits SG formation (Anderson and Kedersha, 2006). HeLa cells that were pretreated for 1 hour with 10 μg/ml of emetine and then treated with 15d-PGJ2 (50 μM) for 1 hour, and subjected to immunocytochemical analyses.
The amounts of 15d-PGJ2 required for SG formation were measured.

Another assay deals with eIF2α. Description: Phosphorylated eIF2α levels in HeLa cell lysates (in vitro translation mixtures), Western blot. In kind it is biochemical. The note with it: FIG. 5B lanes 2-8. Here is the method:
In FIG. 5B, HeLa lysates that were pretreated with vehicle (1) or with indicated chemicals (2-9) for 30 minutes at indicated concentrations, a capped Renilla luciferase mRNA (40 nM) was added to the translation mixtures, and then incubated at 30° C. for 1 hour (grey columns). White columns show the effects of the same set of chemicals added together with the reporter mRNA during 1 hour in vitro translation. Relative luciferase activities (mean values) are depicted by columns. Phosphorylated eIF2α levels were monitored by Western-blot analyses (bottom panel). […] The molecular basis of this phenomenon remains to be determined.
This would be the reason why translation is not inhibited by SA in the HeLa cell lysates (FIG. 5B, lane 8) unlike in the in vivo system where eIF2α is phosphorylated by SA ([…]).
On the technique in general: A western blot detects proteins with antibodies after separation by electrophoresis.

The target of another assay is T1, eIF4GI-eIF4A interaction (Homo sapiens, UniProt P60842).
T1 construct: expressed in transfected cells; host or cells: 293T
Description: eIF4GI-eIF4A co-immunoprecipitation from 293T cell lysates. In kind it is biochemical. The note with it: 293T cell extract, 50 μM, 30° C., 1 hour, FIG. 7A. The protocol:
293T cells transfected with DNAs were lysed using the NP-40 lysis buffer. The lysates were clarified by centrifugation at 14,000 g for 15 minutes. Anti-FLAG monoclonal antibody (4 μg) was incubated with 20 μl of Protein G-agarose (GE Healthcare) for 1 hour in 1 ml NP-40 lysis buffer at 4° C. Lysates were pre-cleared with 10 μl of protein G-agarose at 4° C. for 30 minutes. After pre-clearing, cell lysates were treated with 50 μM of EtOH, PGE2, or 15d-PGJ2 at 30° C. for 1 hour, followed by centrifugation. Then protein G agarose-conjugated antibodies were incubated with the pre-cleared lysates at 4° C. for 1 hour. Precipitates were washed three times with lysis buffer and analyzed by SDS-PAGE.
The mechanism by which 15d-PGJ2 inhibits translation was investigated by monitoring the effects of 15d-PGJ2 on translational initiation complex formation as shown FIG. 7A. eIF4G is a scaffold protein that recruits eIF4E, eIF4A, eIF3, and PABP into the translational initiation complex. The effect of 15d-PGJ2 on the eIF4GI-eIF4A interaction was monitored by a co-immunoprecipitation assay. 293T cells were co-transfected with HA-eIF4B and FLAG-eIF4A1 (provided by Dr. Yongjun Dang and Dr. Jian Liu, Johns Hopkins). Cells were lysed then treated with 50 μM of PGE2 or 15d-PGJ2 at 30° C. for 1 hour. Immunoprecipitation was performed with an anti-FLAG antibody.

The mark [3] stands for this setting: 30 minutes, TIA-1 antibody, FIG. 1A.

T1 sequence (P60842 whole entry): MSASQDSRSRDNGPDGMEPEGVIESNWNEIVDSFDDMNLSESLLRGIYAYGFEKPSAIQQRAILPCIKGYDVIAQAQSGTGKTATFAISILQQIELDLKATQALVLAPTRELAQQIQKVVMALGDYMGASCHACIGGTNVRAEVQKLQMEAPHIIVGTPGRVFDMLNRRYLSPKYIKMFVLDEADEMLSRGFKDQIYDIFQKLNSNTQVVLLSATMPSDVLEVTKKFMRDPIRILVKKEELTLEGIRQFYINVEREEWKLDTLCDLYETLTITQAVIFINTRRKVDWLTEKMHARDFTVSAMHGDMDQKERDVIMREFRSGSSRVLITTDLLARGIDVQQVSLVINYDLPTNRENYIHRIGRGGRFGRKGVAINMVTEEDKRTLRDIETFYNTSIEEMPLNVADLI
T1 sequence (P23588 whole entry partner): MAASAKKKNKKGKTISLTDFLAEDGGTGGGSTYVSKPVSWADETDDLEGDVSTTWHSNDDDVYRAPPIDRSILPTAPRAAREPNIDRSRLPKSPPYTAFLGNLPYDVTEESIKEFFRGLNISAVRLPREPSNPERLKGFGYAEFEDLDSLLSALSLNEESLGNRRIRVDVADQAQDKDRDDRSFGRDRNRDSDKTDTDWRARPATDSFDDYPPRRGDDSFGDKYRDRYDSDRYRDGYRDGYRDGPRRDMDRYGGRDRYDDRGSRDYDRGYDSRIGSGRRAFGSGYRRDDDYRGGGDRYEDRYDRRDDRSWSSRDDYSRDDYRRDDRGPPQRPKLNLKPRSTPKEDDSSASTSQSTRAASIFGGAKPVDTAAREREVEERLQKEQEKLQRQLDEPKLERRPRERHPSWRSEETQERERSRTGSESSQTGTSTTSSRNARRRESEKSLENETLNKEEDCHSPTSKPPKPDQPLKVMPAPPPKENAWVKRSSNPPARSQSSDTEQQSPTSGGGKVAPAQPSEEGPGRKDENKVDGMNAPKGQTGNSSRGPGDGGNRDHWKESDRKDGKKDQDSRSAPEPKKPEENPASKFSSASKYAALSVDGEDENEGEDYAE

`CCCCC/C=C/C=C1/C(=O)C=C[C@@H]1C/C=C\CCCC(=O)O` [15d-PGJ2, 15-deoxy-delta 12,14-prostaglandin J2]: the “Binding of a cap-dependent mRNA to ribosomes” value in the assay on ribosomes is “impairs the binding of a cap-dependent mRNA to ribosomes”. Moreover, the “Polysome profile / ribosomal shift” value in the assay with HeLa cells [1] is given as “Ribosomal shift to the subunit state was also observed”. In addition, the SG formation entry was “SGs were formed” in the assay on HeLa cells [2] (10 μM, 12-24 hours, FIG. 1D) and “induced SG formation” in the assay with HeLa cells [2] (setting [3]). For the same molecule, the “SG inducer strength compared” value in the assay with HeLa cells [2] (FIG. 1A panel b vs c) is “stronger SG inducer than PGA1”. In addition, the eIF2α phosphorylation result in the assay with eIF2α is “No increase of eIF2α phosphorylation”. Also, the “Co-precipitation of eIF4GI with eIF4A1” value on eIF4GI-eIF4A interaction was “eIF4GI was not co-precipitated with eIF4A1”.
Consider `CCCCC[C@H](O)/C=C/[C@H]1[C@H](O)CC(=O)[C@@H]1C/C=C\CCCC(=O)O` [PGE2, prostaglandin E2], for which the “Polysome profile / ribosomal shift” value with HeLa cells [1] was “did not induce a ribosomal shift”. Further, the SG formation result with HeLa cells [2] (setting [3]) was “did not induce SG formation”. The eIF2α phosphorylation result in the assay on eIF2α is given as “No increase of eIF2α phosphorylation”. Moreover, the “Co-precipitation of eIF4GI with eIF4A1” value at eIF4GI-eIF4A interaction is recorded as “eIF4GI was co-precipitated with eIF4A1”.
